Assay results reported in patent US20120190666A1, “Heteroaryl Compounds as PIKK Inhibitors” (Amgen Inc., priority 2009, published 2012).

Columns and labels:
[1] = system: phosphorylation of Akt at Serine 473 in U87 MG cells; experiment: pAkt AlphaScreen (U87 cell); type: cell-based; settings: Homo sapiens, U-87 MG, 2 h; pAkt at Serine 473, U87 MG cells, two hours with compound
Description: The pAkt AlphaScreen® assay (PerkinElmer, Waltham, Mass.) determines whether there is phosphorylation of Akt at Serine 473 by recruitment of a phosphospecific antibody. This assay was performed using U87 MG cells. The U87 growth media consists of MEM (Gibco, Carlsbad, Calif.) supplemented with 10% FBS (Gibco), 1× Non-Essential Amino Acids (Gibco,) and 1× Penicillin/Streptomycin/Glutamine (Gibco). The cells were maintained weekly using 0.05% Trypsin (Gibco) and replated in 150 mm TC— Treated Culture Dishes (Corning, Corning, N.Y.).
The first day of the assay, the adherent cells were trypsinized, media was added to the loose cells and cells were mixed to a homogenous mixture. 0.5 ml of the homogenous mixture was counted on the Beckman Coulter® Vi-Cell™ XR (Fullerton, Calif.). 50 frames of cells were counted and the number of viable cells was determined. The cells were then diluted to 0.25 million cells per ml, and centrifuged at 200 rcf for 5 minutes. The media was removed and the cells were reconstituted in fresh media for plating. The cells were plated at 20 μl per well on the PerkinElmer® FlexDrop PLUS in Low Volume 384 Well White Tissue Culture Plates (Corning) with a final cell density of 5K cells per well. The plates were incubated overnight at 37° Celsius, 5% CO2.
On the second day, the compound plates were prepared, the cells were treated with compound and the pAkt reaction mix was added to the cell lysate. 384 well compound plates were prepared containing 1 μl of compound per well starting at 5 mM and diluted 1:2 across the row, resulting in a 22 well serial dilution. 39 μl of growth media was added to the compound plate in rows 1-22 using the PerkinElmer® FlexDrop PLUS resulting in a DMSO concentration of 2.5%. The cell plates and diluted compound plates were put onto the VELOCITY11™ VPREP™ 384 ST where the compound plate was mixed and 5 μl of serially diluted compound or controls was added to the cell plate. The final concentration of the compounds was 25 μM serially diluted to 11.9 pM in 0.5% DMSO.
The cell plates were then incubated with compound for two hours at 37° C., 5% CO2. After two hours, the media in the cell plates was aspirated using the BioTek® ELx405HT plate washer (Winooski, Vt.) removing the majority of media and compound without disturbing the adherent U87 cells. The following assay reagents are components of the SureFire® Akt (Ser 473) Phosphorylation 50K Point Kit (TGR BioSciences, Adelaide, Austalia) and an IgG Detection Kit (PerkinElmer, Waltham, Mass.). 5 μl of 1× Lysis Buffer was added to each well using the PerkinElmer® FlexDrop PLUS. The plates were then incubated at room temperature on a shaker for ten minutes. The AlphaScreen® reaction was prepared under low light conditions (subdued or green light) including p-Aid (Ser 473) Reaction Buffer, Dilution Buffer, Activation Buffer, Acceptor Beads and Donor Beads at a ratio of 40:20:10:1:1 respectively. The AlphaScreen® reaction was added to the cell lysate at 6 μl per well using the PerkinElmer® FlexDrop PLUS. The plates were placed in a humid environment to reduce edge effects and incubated overnight at room temperature with restricted air flow in the dark.
On the final day of the experiment, the plates were read on the PerkinElmer® EnVision™ 2103 Multilable Reader using the standard AlphaScreen® readout. The POC is calculated and the data is analyzed to report the IC50 IP for pAkt at Serine 473.
Activity data for the compounds tested in the PI3K cell based Akt assay is provided in Table 1 under the column heading U87

PI3Kα = target: T1, PI3Kα (Homo sapiens, UniProt P42336); experiment: In vitro PI3K AlphaScreen assay, PI3Kα; type: biochemical; settings: PI(4,5)P2 substrate, 20 minutes at room temperature, read-out: P13Kalpha IC50 um
T1 construct: Full length p110 subunits of PI3K α, β and δ, N-terminally labeled with polyHis tag; polyHis (N); made in house; host or cells: Sf9 insect cells (baculovirus)
Description: The PI3K AlphaScreen® assay (PerkinElmer, Waltham, Mass.) measures the activity of a panel of four phosphoinositide 3-kinases: PI3Kα, PI3KIβ, PI3Kγ, and PI3Kδ. Each of these enzymes phosphorylates the 3′-hydroxyl group on phosphatidylinositiol (4,5)-bisphosphate (PIP2) to produce phosphatidylinositol (3,4,5)-trisphosphate (PIP3). This phosphorylation activity is measured using a GST-tagged PIP3 binding protein (Echelon Biosciences, Salt Lake City, Utah), an anti-GST-tagged Acceptor bead, and streptavidin-Donor bead. The interaction of biotinylated-PIP3 analog (IP4) and the PIP3 binding protein brings both Acceptor and Donor beads together producing, upon excitation of the Donor beads at 680 nm, a singlet oxygen species leading to the luminescent AlphaScreen® signal. When PIP3 is produced via phosphorylation of PIP2 by a PI3K, PIP3 competes with biotinylated-PIP3 analog (IP4) for binding to the PIP3 binding protein. In the absence of this interaction, proximity of the Donor and Acceptor beads is decreased, producing a loss of luminescent signal which is […] to PI3K activity. […] The enzyme reaction buffer is made using sterile water (Baxter, Deerfield, Ill.) and 50 mM Tris HCl pH 7, 14 mM MgCl2, 2 mM sodium cholate, and 100 mM NaCl. 2 mM DTT is added fresh the day of the experiment. The AlphaScreen® reaction buffer is made using sterile water and 10 mM Tris HCl pH 7.5, 150 mM NaCl, 0.10% Tween 20, and 30 mM EDTA. 1 mM DTT is added fresh the day of the experiment. The source plates for this assay are 384-well Greiner clear polypropylene plates containing test compounds at 5 mM and diluted 1:2 over 22 points. Columns 23 and 24 contain only DMSO as these are designated for positive and negative controls. Source plates are replicated into 384-well Optiplates (PerkinElmer, Waltham, Mass.), 0.5 μL/well, to make assay-ready plates. The different PI3K isoforms are each diluted in enzyme reaction buffer to 2× working solutions. PI3Kα is diluted to 1.6 nM, PI3Kβ is diluted to 0.8 nM, PI3Kγ is diluted to 15 nM, and PI3Kδ is diluted to 1.6 nM. Two different 2× substrate solutions are made in enzyme reaction buffer. In one solution, PI(4,5)P2 (Echelon Biosciences, Salt Lake City, Utah) is diluted to 10 μM and ATP is diluted to 20 μM. This solution is used in the assays testing PI3Kα and PI3Kβ. In a second solution, PI(4,5)P2 is diluted to 10 μM and ATP is diluted to 80 μM. This solution is used in the assays testing PI3Kγ and PI3Kδ. The AlphaScreen® reaction solutions are made using beads from the anti-GST AlphaScreen® kit (PerkinElmer, Waltham, Mass.). Two solutions are made in Alphascreen reaction buffer to 4× working concentrations. In one solution, biotinylated-IP4 (Echelon Biosciences, Salt Lake City, Utah) is diluted to 40 nM and streptavadin-Donor Beads are diluted to 80 μg/mL. In the second solution, PIP3-binding protein (Echelon Biosciences, Salt Lake City, Utah) is diluted to 40 nM and anti-GST-Acceptor Beads are diluted to 80 μg/mL. 10 μL/well of enzyme reaction buffer is added to Column 24 of the assay ready plates in place of enzyme. This is done for plates in the PI3Kα, β, and δ assays. Using a 384-well dispensing Multidrop (Titertek, Huntsville, Ala.), 10 μL/well of 2× enzyme (PI3Kα, β, δ) is added to Columns 1-23 of the appropriate assay ready plates (for PI3Kγ 10 μL is added to Columns 1-24). 10 μL/well of the appropriate substrate solution (the solution with 20 μM ATP for PI3Kα and β assays, and the solution with […] for PI3Kγ and δ assays) is then added to Columns 1-24 of the plates. Plates are then incubated at room temperature for 20 minutes. In the dark, 10 μL/well of the Donor Bead solution is added to Columns 1-24 of the plates to quench the enzyme reaction. The plates are incubated at room temperature for 30 minutes. Still in the dark, 10 μL/well of the Acceptor Bead solution is also added to Columns 1-24 of the plates. The plates are then incubated in the dark for 1.5 hours.

T1 sequence (P42336 whole entry): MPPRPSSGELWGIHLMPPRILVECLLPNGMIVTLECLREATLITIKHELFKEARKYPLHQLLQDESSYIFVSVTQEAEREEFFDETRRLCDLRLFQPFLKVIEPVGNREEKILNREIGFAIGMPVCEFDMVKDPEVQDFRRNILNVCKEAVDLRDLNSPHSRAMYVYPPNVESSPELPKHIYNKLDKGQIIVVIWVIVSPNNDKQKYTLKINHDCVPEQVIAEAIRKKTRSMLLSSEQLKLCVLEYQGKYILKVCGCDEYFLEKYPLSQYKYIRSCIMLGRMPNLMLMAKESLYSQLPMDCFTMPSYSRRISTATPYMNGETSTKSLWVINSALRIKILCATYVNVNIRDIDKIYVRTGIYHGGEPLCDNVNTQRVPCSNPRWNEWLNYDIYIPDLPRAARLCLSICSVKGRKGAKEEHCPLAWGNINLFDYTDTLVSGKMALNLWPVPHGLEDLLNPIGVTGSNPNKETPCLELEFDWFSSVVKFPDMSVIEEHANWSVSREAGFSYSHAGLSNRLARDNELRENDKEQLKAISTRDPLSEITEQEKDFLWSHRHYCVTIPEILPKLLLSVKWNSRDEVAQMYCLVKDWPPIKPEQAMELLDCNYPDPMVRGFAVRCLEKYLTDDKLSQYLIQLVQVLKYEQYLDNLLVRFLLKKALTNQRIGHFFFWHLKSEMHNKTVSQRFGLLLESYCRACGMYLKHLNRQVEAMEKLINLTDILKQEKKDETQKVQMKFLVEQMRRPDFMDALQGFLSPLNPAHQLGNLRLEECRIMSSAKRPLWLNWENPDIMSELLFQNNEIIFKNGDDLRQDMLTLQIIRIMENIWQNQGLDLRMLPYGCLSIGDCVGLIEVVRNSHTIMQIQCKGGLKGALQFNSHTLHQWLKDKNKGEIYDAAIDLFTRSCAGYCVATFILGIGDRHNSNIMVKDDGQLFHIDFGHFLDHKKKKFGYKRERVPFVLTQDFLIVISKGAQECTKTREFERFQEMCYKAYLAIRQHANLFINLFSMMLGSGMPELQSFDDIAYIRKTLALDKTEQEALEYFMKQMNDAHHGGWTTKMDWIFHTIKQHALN
T1 sequence (P27986 whole entry partner): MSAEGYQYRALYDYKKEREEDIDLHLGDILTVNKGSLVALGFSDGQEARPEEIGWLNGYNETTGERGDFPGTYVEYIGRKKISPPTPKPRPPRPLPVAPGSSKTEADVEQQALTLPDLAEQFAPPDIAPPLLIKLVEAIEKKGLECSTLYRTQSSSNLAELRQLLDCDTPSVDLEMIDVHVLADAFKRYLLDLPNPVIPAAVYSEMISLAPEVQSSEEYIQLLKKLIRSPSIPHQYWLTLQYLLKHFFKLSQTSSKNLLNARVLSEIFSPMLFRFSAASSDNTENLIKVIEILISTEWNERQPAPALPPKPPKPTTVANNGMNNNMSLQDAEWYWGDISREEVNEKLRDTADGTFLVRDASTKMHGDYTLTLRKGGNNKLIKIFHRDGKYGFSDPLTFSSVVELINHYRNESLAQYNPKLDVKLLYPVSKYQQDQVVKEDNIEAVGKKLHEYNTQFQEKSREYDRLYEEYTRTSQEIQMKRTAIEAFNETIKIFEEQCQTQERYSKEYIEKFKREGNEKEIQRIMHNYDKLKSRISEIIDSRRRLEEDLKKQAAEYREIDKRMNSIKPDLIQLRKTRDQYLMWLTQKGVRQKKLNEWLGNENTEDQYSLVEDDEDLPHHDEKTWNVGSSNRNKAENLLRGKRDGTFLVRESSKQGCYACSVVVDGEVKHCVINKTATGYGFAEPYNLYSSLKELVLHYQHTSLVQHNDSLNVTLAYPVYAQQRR

| SMILES | IC50 [1] [nM] | IC50 (PI3Kα) [nM] |
| --- | --- | --- |
| COc1ccc(Nc2nc3ccccn3c2-c2nc(C)nc(N)n2)cn1 [Cpd 4, 3-(4-amino-6-methyl-1,3,5-triazin-2-yl)-N-(6-methoxypyridin-3-yl)imidazo[1,2-a]pyridin-2-amine] | 40 |  |
| COCCN1CCN(c2ccc3nc(Nc4cnc(OC)c(F)c4)c(-c4nc(C)nc(N)n4)n3c2)CC1 [Cpd 29, 3-(4-amino-6-methyl-1,3,5-triazin-2-yl)-N-(5-fluoro-6-methoxy-3-pyridinyl)-6-(4-(2-methoxyethyl)-1-piperazinyl)imidazo[1,2-a]pyridin-2-amine] | 26 |  |
| CNc1cc(-c2c(Nc3cc[nH]n3)nc3cc(N4CCOCC4)cnn23)nc(C)n1 [Cpd 88, 3-(2-methyl-6-(methylamino)-4-pyrimidinyl)-7-(4-morpholinyl)-N-1H-pyrazol-3-ylimidazo[1,2-b]pyridazin-2-amine] | 1630 | 4500 |
| Cc1nc(N)cc(-c2c(Nc3cccc(S(C)(=O)=O)c3)nc3cccnn23)n1 [Cpd 94, 3-(6-amino-2-methyl-4-pyrimidinyl)-N-(3-(methylsulfonyl)phenyl)imidazo[1,2-b]pyridazin-2-amine] | 3920 |  |
| Cc1nc(NC(=O)Cc2cccc(F)c2)cc(-c2c(Nc3ccn(C)n3)nc3ccccn23)n1 [Cpd 128] | 3160 | 5030 |
| Cc1nc(NC(=O)Cc2ccc(F)cc2F)cc(-c2c(Nc3ccn(C)n3)nc3cccnn23)n1 [Cpd 129, 2-(2,4-difluorophenyl)-N-(2-methyl-6-(2-((1-methyl-1H-pyrazol-3-yl)amino)imidazo[1,2-b]pyridazin-3-yl)-4-pyrimidinyl)acetamide] | 1470 | 4940 |
| Cc1nc(Nc2ccc(N3CCOCC3)nn2)cc(-c2c(Nc3ccn(C)n3)nc3cccnn23)n1 [Cpd 149, 3-(2-methyl-6-((6-(4-morpholinyl)-3-pyridazinyl)amino)-4-pyrimidinyl)-N-(1-methyl-1H-pyrazol-3-yl)imidazo[1,2-b]pyridazin-2-amine] | 280 |  |
| Cc1nc(N)cc(-c2c(Nc3ccn(C(=O)Nc4cc(C(F)(F)F)ccc4Cl)n3)nc3cccnn23)n1 [Cpd 246, 3-((3-(6-amino-2-methyl-4-pyrimidinyl)imidazo[1,2-b]pyridazin-2-yl)amino)-N-(2-chloro-5-(trifluoromethyl)phenyl)-1H-pyrazole-1-carboxamide] |  | 15800 |
| COCCNC(=O)n1ccc(Nc2nc3cccnn3c2-c2cc(N)nc(C)n2)n1 [Cpd 264] | 3150 | 33400 |
| Cc1nc(N)cc(-c2c(Nc3ccc(N4CC(O)C4)nc3)nc3cccnn23)n1 [Cpd 272, 1-(5-((3-(6-amino-2-methyl-4-pyrimidinyl)imidazo[1,2-b]pyridazin-2-yl)amino)-2-pyridinyl)-3-azetidinol] | 110 | 320 |
| Cc1nc(N)nc(-c2c(Nc3ccc4cccnc4c3)nc3ccc(N4CCN(C(=O)N(C)C)CC4)cn23)n1 [Cpd 277, 4-(3-(4-amino-6-methyl-1,3,5-triazin-2-yl)-2-(7-quinolinylamino)-imidazo[1,2-a]pyridin-6-yl)-N,N-dimethyl-1-piperazinecarboxamide] | 140 | 40 |
| COc1ccc(Nc2nc3ccc(N4CCN(C(C)=O)CC4)cn3c2-c2nc(C)nc(N)n2)cn1 [Cpd 285, 6-(4-acetyl-1-piperazinyl)-3-(4-amino-6-methyl-1,3,5-triazin-2-yl)-N-(6-methoxy-3-pyridinyl)imidazo[1,2-a]pyridin-2-amine] |  | 90 |
| Cc1nc(N)nc(-c2c(Nc3ccn[nH]3)nc3ccc(C(N)=O)cn23)n1 [Cpd 293, 3-(4-amino-6-methyl-1,3,5-triazin-2-yl)-2-(1H-pyrazol-5-ylamino)-imidazo[1,2-a]pyridine-6-carboxamide] | 710 | 300 |
| Cc1nc(NCC(F)(F)F)cc(-c2c(Nc3ccn[nH]3)nc3cccnn23)n1 [Cpd 295, 3-(2-methyl-6-((2,2,2-trifluoroethyl)amino)-4-pyrimidinyl)-N-1H-pyrazol-5-ylimidazo[1,2-b]pyridazin-2-amine] | 240 | 2980 |
| Cc1nc(N)cc(-c2c(Nc3cccc(NC(=O)NC4CC4)c3)nc3cccnn23)n1 [Cpd 316, 1-(3-((3-(6-amino-2-methyl-4-pyrimidinyl)imidazo[1,2-b]pyridazin-2-yl)amino)phenyl)-3-cyclopropylurea] | 950 |  |
| Cc1nc(N)cc(-c2c(Nc3cccc(NC(=O)Cc4ccccc4)c3)nc3ccccn23)n1 [Cpd 318, N-(3-((3-(6-amino-2-methyl-4-pyrimidinyl)imidazo[1,2-a]pyridin-2-yl)amino)phenyl)-2-phenylacetamide] |  | 12000 |
| CNC(=O)c1cccc(Nc2nc3cccnn3c2-c2cc(N)nc(C)n2)c1 [Cpd 334] | 240 | 4940 |
